Values joined by “and” are separate entries in the source; they are usually repeats but may differ in a detail not shown here. Identical values can stand only once. Like-named read-outs stand apart in the source and are kept apart here. One block for each compound: values may come before it.
Key:
[1] = in vivo; cited from earlier work
migraine [2] = settings: cited from earlier work
[3] = time to peak plasma concentration of triptans (FIG. 3); settings: in vivo
[4] = pharmacokinetic parameters of injected versus oral sumatriptan (FIG. 2); format: in vivo; settings: injected vs oral; injected dose is 3% of the oral dose
Source text: (§1) FIG. 2 is a Table comparing pharmacokinetic and pharmacodynamic parameters of subcutaneously injected and oral sumatriptan.
(§2) FIG. 2 compares pharmacokinetic parameters of injected sumatriptan with oral sumatriptan.

migraine [5] = assay: pain relief at 2 hours, injected versus oral sumatriptan (FIG. 2); format: in vivo; settings: via injection, 107 minutes after maximum plasma concentration
Source text: as §1, §2

migraine [6] = settings: in vivo; cited from earlier work

SMILES: CN(C)CCc1c[nH]c2ccc(CS(=O)(=O)N3CCCC3)cc12 [almotriptan]
half life [1]: 3 to 4 h

SMILES: O=C(O)Cc1ccccc1Nc1c(Cl)cccc1Cl [diclofenac]
effectiveness (migraine [2]; intramuscular): 70% and 88%
effectiveness (migraine [2]; oral): 44%

SMILES: CN1CCC[C@@H]1Cc1c[nH]c2ccc(CCS(=O)(=O)c3ccccc3)cc12 [eletriptan]
half life [1]: 4 h

SMILES: CN[C@@H]1CCc2[nH]c3ccc(C(N)=O)cc3c2C1 [frovatriptan]
half life [1]: 26 h

SMILES: CNS(=O)(=O)CCc1ccc2[nH]cc(C3CCN(C)CC3)c2c1 [naratriptan]
half life [1]: 5 to 8 h

time to peak plasma concentration, earlier than sumatriptan and zolmitriptan [3]: ~1 h
SMILES: CN(C)CCc1c[nH]c2ccc(Cn3cncn3)cc12 [rizatriptan]
half life [1]: 2 to 3 h

AUC relative to oral dose [4]: about ⅕
maximum concentration relative to oral dose [4]: approximately half
SMILES: CNS(=O)(=O)Cc1ccc2[nH]cc(CCN(C)C)c2c1 [sumatriptan]
pain relief at 2 hours, injected vs oral dose (migraine [5]): better for the injected dose than for the oral dose
half life [1]: 2.5 h
pain relief at two hours compared with rizatriptan (migraine [6]): less than that of rizatriptan

SMILES: CN(C)CCc1c[nH]c2ccc(C[C@H]3COC(=O)N3)cc12 [zolmitriptan]
half life [1]: 3 h
pain relief at two hours compared with rizatriptan (migraine [6]): less than that of rizatriptan

Reference: patent publication US20130231311A1, “NOVEL FORMULATIONS FOR TREATMENT OF MIGRAINE” (ZOGENIX, INC., priority 2008, published 2013)
